Key:
Format in all cases: functional
Thanatephorus cucumeris = assay: Antifungal activity against Rhizoctonia solani at 50 ug/ml
Botrytis cinerea = assay: Antifungal activity against Botrytis cinereapers at 50 ug/ml
Bipolaris maydis = assay: Antifungal activity against Bipolaris maydis at 50 ug/ml
[1] = system: Botryosphaeria berengeriana; assay: Antifungal activity against Physalospora piricola at 50 ug/ml
Fusarium graminearum = assay: Antifungal activity against Gibberella zeae at 50 ug/ml

Q: Which inhibition at 50 µg/mL (Thanatephorus cucumeris) does the source give for `CO/N=C(/C(=O)OC)c1ccccc1CSc1nnc(-c2ccc(OC)cc2)o1` here?
A: 91.8%

Q: And the inhibition at 50 µg/mL (Botrytis cinerea)?
A: 94.2%

Q: And the inhibition at 50 µg/mL (Bipolaris maydis)?
A: 92.5%

Q: What about the inhibition at 50 µg/mL [1] of the same molecule?
A: 93.8%

Q: What about the inhibition at 50 µg/mL (Fusarium graminearum) of the same molecule?
A: 85.7%

Q: Which results are given for `CO/N=C(/C(=O)OC)c1ccccc1CSc1nnc(-c2cccc(Cl)c2)o1`?
A: inhibition at 50 µg/mL (Thanatephorus cucumeris): 94.4%; inhibition at 50 µg/mL (Botrytis cinerea): 85.4%; inhibition at 50 µg/mL (Bipolaris maydis): 90.9%; inhibition at 50 µg/mL [1]: 92.6%; inhibition at 50 µg/mL (Fusarium graminearum): 96.9%

Q: With `CO/N=C(/C(=O)OC)c1ccccc1CSc1nnc(-c2ccc(C(F)(F)F)cc2)o1` as the molecule, how does the inhibition at 50 µg/mL (Thanatephorus cucumeris) read?
A: 95.6%

Q: And the inhibition at 50 µg/mL (Botrytis cinerea)?
A: 84.6%

Q: What about the inhibition at 50 µg/mL (Bipolaris maydis) of the same molecule?
A: 81.8%

Q: What about the inhibition at 50 µg/mL [1] of the same molecule?
A: 100%

Q: And the inhibition at 50 µg/mL (Fusarium graminearum)?
A: 93.8%

Q: `CO/N=C(/C(=O)OC)c1ccccc1CSc1nnc(-c2ccccc2F)o1` was tested. Which inhibition at 50 µg/mL (Thanatephorus cucumeris) did it give?
A: 92.6%

Q: And the inhibition at 50 µg/mL (Botrytis cinerea)?
A: 97.6%

Q: And the inhibition at 50 µg/mL (Bipolaris maydis)?
A: 92.3%

Q: And the inhibition at 50 µg/mL [1]?
A: 100%

Q: What about the inhibition at 50 µg/mL (Fusarium graminearum) of the same molecule?
A: 98%

Q: `CO/N=C(/C(=O)OC)c1ccccc1CSc1nnc(-c2cccc(Cl)c2Cl)o1` was tested. Which inhibition at 50 µg/mL (Thanatephorus cucumeris) did it give?
A: 91.6%

Q: What about the inhibition at 50 µg/mL (Botrytis cinerea) of the same molecule?
A: 83.3%

Q: What about the inhibition at 50 µg/mL (Bipolaris maydis) of the same molecule?
A: 84%

Q: And the inhibition at 50 µg/mL [1]?
A: 96.7%

Q: And the inhibition at 50 µg/mL (Fusarium graminearum)?
A: 84.3%

Q: What does the source list for `CO/N=C(/C(=O)OC)c1ccccc1CSc1nnc(-c2ccc(Cl)cc2Cl)o1`?
A: inhibition at 50 µg/mL (Thanatephorus cucumeris): 92.6%; inhibition at 50 µg/mL (Botrytis cinerea): 98.8%; inhibition at 50 µg/mL (Bipolaris maydis): 85.7%; inhibition at 50 µg/mL [1]: 88.9%; inhibition at 50 µg/mL (Fusarium graminearum): 74.3%

Q: How did the inhibition at 50 µg/mL (Thanatephorus cucumeris) turn out when `CO/N=C(/C(=O)OC)c1ccccc1CSc1nnc(-c2ccccc2I)o1` was run?
A: 90.2%

Q: And the inhibition at 50 µg/mL (Botrytis cinerea)?
A: 96.2%

Q: And the inhibition at 50 µg/mL (Bipolaris maydis)?
A: 86.4%

Q: What about the inhibition at 50 µg/mL [1] of the same molecule?
A: 96.3%

Q: And the inhibition at 50 µg/mL (Fusarium graminearum)?
A: 98.4%

Q: What does the source list for `CO/N=C(/C(=O)OC)c1ccccc1CSc1nnc(-c2cc(Cl)ccc2Cl)o1`?
A: inhibition at 50 µg/mL (Thanatephorus cucumeris): 97%; inhibition at 50 µg/mL (Botrytis cinerea): 88.5%; inhibition at 50 µg/mL (Bipolaris maydis): 82.7%; inhibition at 50 µg/mL [1]: 100%; inhibition at 50 µg/mL (Fusarium graminearum): 90.6%

Q: `CO/N=C(/C(=O)OC)c1ccccc1CSc1nnc(-c2ccc(OCc3ccccc3)cc2)o1` was tested. Which inhibition at 50 µg/mL (Thanatephorus cucumeris) did it give?
A: 98%

Q: And the inhibition at 50 µg/mL (Botrytis cinerea)?
A: 90.6%

Q: What about the inhibition at 50 µg/mL (Bipolaris maydis) of the same molecule?
A: 95%

Q: What about the inhibition at 50 µg/mL [1] of the same molecule?
A: 96.9%

Q: And the inhibition at 50 µg/mL (Fusarium graminearum)?
A: 89.2%

Q: With `CO/N=C(/C(=O)OC)c1ccccc1CSc1nnc(-c2ccccc2)o1` as the molecule, how does the inhibition at 50 µg/mL (Thanatephorus cucumeris) read?
A: 92.4%

Q: And the inhibition at 50 µg/mL (Botrytis cinerea)?
A: 97.6%

Q: What about the inhibition at 50 µg/mL (Bipolaris maydis) of the same molecule?
A: 88%

Q: What about the inhibition at 50 µg/mL [1] of the same molecule?
A: 94.9%

Q: What about the inhibition at 50 µg/mL (Fusarium graminearum) of the same molecule?
A: 79.4%

Q: For `CO/N=C(/C(=O)OC)c1ccccc1CSc1nnc(-c2ccc(Br)cc2F)o1`, which inhibition at 50 µg/mL (Thanatephorus cucumeris) is on record?
A: 97.9%

Q: What about the inhibition at 50 µg/mL (Botrytis cinerea) of the same molecule?
A: 100%

Q: And the inhibition at 50 µg/mL (Bipolaris maydis)?
A: 92.9%

Q: And the inhibition at 50 µg/mL [1]?
A: 100%

Q: What about the inhibition at 50 µg/mL (Fusarium graminearum) of the same molecule?
A: 85.7%

Q: Which inhibition at 50 µg/mL (Thanatephorus cucumeris) does the source give for `CO/N=C(/C(=O)OC)c1ccccc1CSc1nnc(-c2ccc(F)cc2)o1` here?
A: 97.9%

Q: What about the inhibition at 50 µg/mL (Botrytis cinerea) of the same molecule?
A: 100%

Q: What about the inhibition at 50 µg/mL (Bipolaris maydis) of the same molecule?
A: 91.7%

Q: And the inhibition at 50 µg/mL [1]?
A: 100%

Q: What about the inhibition at 50 µg/mL (Fusarium graminearum) of the same molecule?
A: 98.6%

Q: With `CO/N=C(/C(=O)OC)c1ccccc1CSc1nnc(-c2ccc([N+](=O)[O-])cc2)o1` as the molecule, how does the inhibition at 50 µg/mL (Thanatephorus cucumeris) read?
A: 85.9%

Q: And the inhibition at 50 µg/mL (Botrytis cinerea)?
A: 88.5%

Q: And the inhibition at 50 µg/mL (Bipolaris maydis)?
A: 86.4%

Q: What about the inhibition at 50 µg/mL [1] of the same molecule?
A: 96.3%

Q: What about the inhibition at 50 µg/mL (Fusarium graminearum) of the same molecule?
A: 92.5%

Q: With `CO/N=C(/C(=O)OC)c1ccccc1CSc1nnc(-c2cccc(F)c2F)o1` as the molecule, how does the inhibition at 50 µg/mL (Thanatephorus cucumeris) read?
A: 100%

Q: And the inhibition at 50 µg/mL (Botrytis cinerea)?
A: 100%

Q: What about the inhibition at 50 µg/mL (Bipolaris maydis) of the same molecule?
A: 96.4%

Q: And the inhibition at 50 µg/mL [1]?
A: 100%

Q: What about the inhibition at 50 µg/mL (Fusarium graminearum) of the same molecule?
A: 98.6%

Q: Which results are given for `CO/N=C(/C(=O)OC)c1ccccc1CSc1nnc(-c2cc(F)c(Cl)cc2Cl)o1`?
A: inhibition at 50 µg/mL (Thanatephorus cucumeris): 97.8%; inhibition at 50 µg/mL (Botrytis cinerea): 98.8%; inhibition at 50 µg/mL (Bipolaris maydis): 81.6%; inhibition at 50 µg/mL [1]: 100%; inhibition at 50 µg/mL (Fusarium graminearum): 88.6%

Q: What does the source list for `CO/N=C(/C(=O)OC)c1ccccc1COc1ccccc1C` [KRESOXIM-METHYL]?
A: inhibition at 50 µg/mL (Thanatephorus cucumeris): 66.1%; inhibition at 50 µg/mL (Botrytis cinerea): 97.2%; inhibition at 50 µg/mL (Bipolaris maydis): 90.6%; inhibition at 50 µg/mL [1]: 98.5%; inhibition at 50 µg/mL (Fusarium graminearum): 96.8%

Reference: ChEMBL document CHEMBL1146969, “Stereoselective synthesis and fungicidal activities of (E)-alpha-(methoxyimino)-benzeneacetate derivatives containing 1,3,4-oxadiazole ring” (2006)
